Source: patent publication US20100160369A1, “S1P1 Agonists and Methods of Making And Using” (EXELIXIS, INC., priority 2008, published 2010)

Assays:
S1P1 [1] = target: T1, S1P1 (Homo sapiens, UniProt P21453); assay: Tango β-arrestin Recruitment Assay in HEK293 cells (Assay 2a); assay type: cell-based; parameters: linker with TEV protease (N1a) cleavage site (C); host or cells: HEK293, transiently transfected; details: Tango β-arrestin Recruitment Assay, read-out: Assay 2a EC50
How it was run: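 Agonist-driven β-arrestin2–TEV recruitment releases tTA to drive luciferase in transiently transfected HEK293 cells. Ten 3-fold dilutions from 10 μM top (1% DMSO), 16–18 h at 37 °C; EC50 fitted to percent activity versus DMSO background and 5 μM S1P efficacy control.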
Target sequence in this assay (P21453 whole entry): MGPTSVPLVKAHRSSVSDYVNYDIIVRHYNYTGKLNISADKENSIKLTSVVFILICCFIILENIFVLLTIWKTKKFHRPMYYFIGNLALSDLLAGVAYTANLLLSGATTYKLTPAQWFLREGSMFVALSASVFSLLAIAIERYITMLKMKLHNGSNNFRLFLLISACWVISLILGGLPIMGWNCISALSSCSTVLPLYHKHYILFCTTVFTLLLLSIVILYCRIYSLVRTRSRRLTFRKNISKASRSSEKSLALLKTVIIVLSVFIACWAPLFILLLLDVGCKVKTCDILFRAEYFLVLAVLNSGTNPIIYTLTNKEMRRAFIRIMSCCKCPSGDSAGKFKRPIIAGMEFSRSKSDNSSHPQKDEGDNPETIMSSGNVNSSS
Target sequence in this assay (P32121 whole entry partner): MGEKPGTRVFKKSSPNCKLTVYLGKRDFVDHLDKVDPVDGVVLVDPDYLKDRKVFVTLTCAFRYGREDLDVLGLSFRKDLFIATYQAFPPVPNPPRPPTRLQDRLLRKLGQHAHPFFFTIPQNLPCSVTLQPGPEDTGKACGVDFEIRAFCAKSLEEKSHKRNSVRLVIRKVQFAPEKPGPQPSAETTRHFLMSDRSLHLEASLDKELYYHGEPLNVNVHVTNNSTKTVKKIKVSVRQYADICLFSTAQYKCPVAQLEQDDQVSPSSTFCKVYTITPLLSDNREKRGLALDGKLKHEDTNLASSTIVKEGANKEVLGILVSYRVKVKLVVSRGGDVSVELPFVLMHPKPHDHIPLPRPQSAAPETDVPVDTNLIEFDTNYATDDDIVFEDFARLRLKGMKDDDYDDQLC

hS1P1R (hEdg1) = target: T2, hS1P1R (hEdg1) (Homo sapiens, UniProt P21453); assay: hS1P1R GTPγS Binding Assay (Assay 3a); assay type: biochemical
T2 construct: purchased Lonza
T2 sequence (P21453 whole entry): as the sequence (P21453 whole entry) above
How it was run: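 Human S1P1 receptor membranes (4 μg) incubated 1 h at room temperature with 30 μM GDP, 0.1 nM [35S]GTPγS, 0.25% fatty-acid-free BSA and serially diluted agonist in pH 7.9 Tris buffer with Mg2+ and EGTA. Bound radioactivity read by WGA SPA after a further 1 h; EC50 reported unless noted.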

S1P1 [2] = target: T1, S1P1; assay: CNG cAMP Assay (Assay 1); assay type: cell-based; parameters: host or cells: HEK293 cells expressing the CNG channel; details: read-out: Assay 1 EC50
How it was run: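 cAMP-gated CNG membrane-potential read-out (350/590 nm, T90/T0 ratio) in S1P1/CNG HEK293 cells after 90 min with compound plus NECA 500 nM, S1P 10 nM (EC95), Ro 20-1724 25 μM. Ten 3-fold points from 10 μM, 1.8% DMSO; percent activity vs NECA-only control gives EC50.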
Target sequence in this assay (P21453 whole entry): as above

Compound	EC50 (S1P1 [1]) [nM]	EC50 (hS1P1R (hEdg1)) [nM]	EC50 (S1P1 [2]) [nM]
O=C(O)CCc1cc(Cl)c(-c2nnc(-c3cn4cc(C(F)(F)F)cc(Br)c4n3)s2)cc1F [Example 177, 3-(4-{5-[8-bromo-6-(trifluoromethyl)imidazo[1,2-a]pyridin-2-yl]-1,3,4-thiadiazol-2-yl}-5-chloro-2-fluorophenyl)propanoic acid]	≤ 100	≤ 100	≤ 100
C[C@H](CO)Oc1cc(Cl)c(-c2noc(-c3cn4cc(C(F)(F)F)cc(Cl)c4n3)n2)cc1F [Example 93, (2R)-2-[(5-chloro-4-{5-[8-chloro-6-(trifluoromethyl)imidazo[1,2-a]pyridin-2-yl]-1,2,4-oxadiazol-3-yl}-2-fluorophenyl)oxy]propan-1-ol]	≤ 100	≤ 100	≤ 100
OCC(O)COc1cc(Cl)c(-c2noc(-c3cn4cc(C(F)(F)F)cc(Cl)c4n3)n2)cc1Cl (stereo not drawn) [Example 208, 3-[(2,5-dichloro-4-{5-[8-chloro-6-(trifluoromethyl)imidazo[1,2-a]pyridin-2-yl]-1,2,4-oxadiazol-3-yl}phenyl)oxy]propane-1,2-diol]	≤ 100	≤ 100	≤ 100
O=C(O)CCc1cc(Cl)c(-c2nc(-c3cn4cc(C(F)(F)F)cc(Cl)c4n3)no2)cc1F [Example 233, 3-(5-chloro-4-{3-[8-chloro-6-(trifluoromethyl)imidazo[1,2-a]pyridin-2-yl]-1,2,4-oxadiazol-5-yl}-2-fluorophenyl)propanoic acid]	≤ 100	100 to 500	≤ 100
CC(C)Oc1cc(Cl)c2nc(-c3nc(-c4cc(F)c(CCC(=O)O)cc4Cl)no3)cn2c1 [Example 301, 3-[5-chloro-4-(5-{8-chloro-6-[(1-methylethyl)oxy]imidazo[1,2-a]pyridin-2-yl}-1,2,4-oxadiazol-3-yl)-2-fluorophenyl]propanoic acid]	≤ 100	100 to 500	≤ 100
O=C(O)CCc1cc(Cl)c(-c2nnc(-c3cn4cc(C(F)(F)F)cc(Cl)c4n3)s2)cc1F [Example 176, 3-(5-chloro-4-{5-[8-chloro-6-(trifluoromethyl)imidazo[1,2-a]pyridin-2-yl]-1,3,4-thiadiazol-2-yl}-2-fluorophenyl)propanoic acid]	≤ 100	≤ 100	≤ 100
O=C(O)CCc1cc(Cl)c(-c2noc(-c3cn4cc(C(F)(F)F)cc(Cl)c4n3)n2)cc1F [Entry 24]	≤ 100	≤ 100	≤ 100
O=C(O)CCc1cc(Cl)c(-c2noc(-c3cn4cc(C(F)(F)F)cc(Br)c4n3)n2)cc1F [Entry 49]	≤ 100	≤ 100	≤ 100
Cc1cc(CCC(=O)O)c(Cl)cc1-c1noc(-c2cn3cc(C(F)(F)F)cc(Cl)c3n2)n1 [Entry 56]	≤ 100	≤ 100	≤ 100
O=C(O)CCc1cc(Cl)c(-c2noc(-c3cn4cc(I)cc(Cl)c4n3)n2)cc1F [Example 302, 3-{5-chloro-4-[5-(8-chloro-6-iodoimidazo[1,2-a]pyridin-2-yl)-1,2,4-oxadiazol-3-yl]-2-fluorophenyl}propanoic acid]	≤ 100	100 to 500	≤ 100
OCCOc1cc(Cl)c(-c2noc(-c3cn4cc(C(F)(F)F)cc(Cl)c4n3)n2)cc1F [Example 263, 2-[(5-chloro-4-{5-[8-chloro-6-(trifluoromethyl)imidazo[1,2-a]pyridin-2-yl]-1,2,4-oxadiazol-3-yl}-2-fluorophenyl)oxy]ethanol]	≤ 100	≤ 100	≤ 100
O=C(O)CCc1cc(Cl)c(-c2noc(-c3cn4cc(C(F)(F)F)cc(Cl)c4n3)n2)cc1Cl [Example 242, 3-(2,5-dichloro-4-{5-[8-chloro-6-(trifluoromethyl)imidazo[1,2-a]pyridin-2-yl]-1,2,4-oxadiazol-3-yl}phenyl)propanoic acid]	≤ 100	≤ 100	≤ 100
